Assay results from patent US8404746B2, “Anti-diabetes composition containing chicoric acid and/or one of the metabolites thereof” (Centre National de la Recherche Scientifique (CNRS), priority 2006, dated 2013).

System: L6 rat myocyte cell line
Experiment: [3H]-deoxyglucose uptake in the L6 rat myocyte cell line with or without insulin (Example 5, FIG. 5)
Assay type: cell-based
Conditions: insulin at 100 nM alone, p<0.001
From the text: The L6 line (a line from the skeletal muscle of Rattus norvegicus provided by ATCC-LCC Promochem) was used. Glucose uptake in the presence of insulin with or without SAT2 was quantified using [^3H]-deoxyglucose. The L6 cell line is cultivated in DMEM (4.5 g/l glucose) supplemented with 10% fetal calf serum (FCS). For the glucose uptake experiments, the cells are inoculated in 12-well plates at a density of 10^4 cells/well. After three days of culture, the cells are differentiated in DMEM with 2% FCS for one week. The day of the experiment, the cells are deprived for 4 hours in DMEM without FCS and containing 0.1% BSA, and then they are incubated for 1 hour in a Krebs-Ringer buffer containing 1 g/l glucose and containing […] insulin with or without SAT2 at a concentration of 50 μg/ml or 100 μg/ml. The cells are then washed in Krebs-Ringer and then incubated in the presence of 0.5 μCi [^3H]-deoxyglucose in 1 ml Krebs-Ringer per well. Glucose uptake by the L6 cells is stopped by three washings in cold PBS and the cells are then lysed in 1 ml of a 0.1 N NaOH solution. Concentration in total protein is estimated by the Bradford method and radioactivity is measured using a β counter. The final results are expressed in cpm/mg/min. […] The effects on glucose uptake are measured in the presence of [^3H]-deoxyglucose for 5 minutes. […]

Substance: Insulin
- increase in glucose capture: 30.4%
